Measurements from ChEMBL document CHEMBL3885861, “Open TG-GATES”.

Species: Rattus norvegicus
Experiment: Open TG-GATES - Regimen: Daily Repeat
Format: toxicity, organism-based, Sprague-Dawley
Parameters: regimen Daily Repeat, gender Male, age 6 weeks
Details: in vivo, iv, 0 mg/kg, route intravenous injection, dose level Control; for APTT / Bas / Eos / Fbg / Hb / Ht / Lym / MCH / MCHC / MCV / Mono / Neu / PT / Plat / RBC / Ret / WBC: tissue Blood; for KIDNEY_L / KIDNEY_R / KIDNEY_TOTAL: tissue Kidney; for LIVER: tissue Liver; for A/G / ALP / ALT / AST / BUN / CRE / Ca / Cl / DBIL / GLC / IP / K / LDH / Na / PL / RALB / TBIL / TC / TG / TP / gamma-GTP: tissue Plasma

`C[C@@H]1[C@H](O)[C@@H](C)/C=C/C=C/C=C/C=C/C=C/C=C/C=C/[C@H](O[C@@H]2O[C@H](C)[C@@H](O)[C@H](N)[C@@H]2O)C[C@@H]2O[C@](O)(C[C@@H](O)C[C@@H](O)[C@H](O)CC[C@@H](O)C[C@@H](O)CC(=O)O[C@H]1C)C[C@H](O)[C@H]2C(=O)O` [AMPHOTERICIN B] showed a TERMINAL_BW (72 h, time 3 day) of 239.8 g, an APTT (72 h, time 3 day) of 16.6 s and a Bas (72 h, time 3 day) of 0%. The Eos (72 h, time 3 day) was 1%, the Fbg (72 h, time 3 day) was 293.6 mg/dL and the Hb (72 h, time 3 day) was 13.7 g/dL. For the same compound, the Ht (72 h, time 3 day) was 40.1%, the Lym (72 h, time 3 day) was 75.8% and the MCH (72 h, time 3 day) was 20.5 pg. It also gave an MCHC (72 h, time 3 day) of 34.2%, an MCV (72 h, time 3 day) of 60 fL and a Mono (72 h, time 3 day) of 2.2%. The Neu (72 h, time 3 day) was 19.8%, the PT (72 h, time 3 day) was 12.6 s and the Plat (72 h, time 3 day) was 145.3 x10_4/uL. It also gave an RBC (72 h, time 3 day) of 668.2 x10_4/ul, a Ret (72 h, time 3 day) of 4.9% and a WBC (72 h, time 3 day) of 97.1 x10_2/uL. It also gave a KIDNEY_L (72 h, time 3 day) of 1 g, a KIDNEY_R (72 h, time 3 day) of 1 g and a KIDNEY_TOTAL (72 h, time 3 day) of 2 g. The LIVER (72 h, time 3 day) was 11.5 g, the A/G (72 h, time 3 day) was 0.8 and the ALP (72 h, time 3 day) was 1512.4 IU/L. It also gave an ALT (72 h, time 3 day) of 38.6 IU/L, an AST (72 h, time 3 day) of 66.2 IU/L and a BUN (72 h, time 3 day) of 16.6 mg/dL. It also gave a CRE (72 h, time 3 day) of 0.2 mg/dL, a Ca (72 h, time 3 day) of 11 mg/dL and a Cl (72 h, time 3 day) of 105.4 meq/L. The DBIL (72 h, time 3 day) was 0.02 mg/dL, the GLC (72 h, time 3 day) was 175.4 mg/dL and the IP (72 h, time 3 day) was 7.3 mg/dL. For the same compound, the K (72 h, time 3 day) was 4.1 meq/L, the LDH (72 h, time 3 day) was 58.6 IU/L and the Na (72 h, time 3 day) was 142.8 meq/L. The PL (72 h, time 3 day) was 140.6 mg/dL, the RALB (72 h, time 3 day) was 2.7 g/dL and the TBIL (72 h, time 3 day) was 0.046 mg/dL. The TC (72 h, time 3 day) was 73.6 mg/dL, the TG (72 h, time 3 day) was 110.8 mg/dL and the TP (72 h, time 3 day) was 6 g/dL. It also gave a gamma-GTP (72 h, time 3 day) of 1.2 IU/L, a TERMINAL_BW ([…], time 7 day) of 275.6 g and a TERMINAL_BW ([…], time 14 day) of 324.6 g. For the same compound, the TERMINAL_BW ([…], time 28 day) was 391.3 g, the APTT ([…], time 7 day) was 17.5 s and the Bas ([…], time 7 day) was 0%. The Eos ([…], time 7 day) was 1%, the Fbg ([…], time 7 day) was 264.4 mg/dL and the Hb ([…], time 7 day) was 13.4 g/dL. It also gave a Ht ([…], time 7 day) of 38.9%, a Lym ([…], time 7 day) of 79.8% and an MCH ([…], time 7 day) of 20.7 pg. The MCHC ([…], time 7 day) was 34.4%, the MCV ([…], time 7 day) was 60 fL and the Mono ([…], time 7 day) was 2.2%. It also gave a Neu ([…], time 7 day) of 16%, a PT ([…], time 7 day) of 12.3 s and a Plat ([…], time 7 day) of 122.6 x10_4/uL. For the same compound, the RBC ([…], time 7 day) was 648.2 x10_4/ul, the Ret ([…], time 7 day) was 4.7% and the WBC ([…], time 7 day) was 102.1 x10_2/uL. It also gave an APTT ([…], time 14 day) of 16.3 s, a Bas ([…], time 14 day) of 1% and an Eos ([…], time 14 day) of 1%. For the same compound, the Fbg ([…], time 14 day) was 280.6 mg/dL, the Hb ([…], time 14 day) was 14.6 g/dL and the Ht ([…], time 14 day) was 41.3%. For the same compound, the Lym ([…], time 14 day) was 80%, the MCH ([…], time 14 day) was 20.5 pg and the MCHC ([…], time 14 day) was 35.4%. The MCV ([…], time 14 day) was 57.8 fL, the Mono ([…], time 14 day) was 2.4% and the Neu ([…], time 14 day) was 15.6%. It also gave a PT ([…], time 14 day) of 12.3 s, a Plat ([…], time 14 day) of 129.9 x10_4/uL and an RBC ([…], time 14 day) of 716.4 x10_4/ul. It also gave a Ret ([…], time 14 day) of 4%, a WBC ([…], time 14 day) of 134.6 x10_2/uL and an APTT ([…], time 28 day) of 19.2 s. It also gave a Bas ([…], time 28 day) of 0.4%, an Eos ([…], time 28 day) of 1% and a Fbg ([…], time 28 day) of 260.4 mg/dL. The Hb ([…], time 28 day) was 15.3 g/dL, the Ht ([…], time 28 day) was 43.7% and the Lym ([…], time 28 day) was 77%. For the same compound, the MCH ([…], time 28 day) was 18.9 pg, the MCHC ([…], time 28 day) was 35% and the MCV ([…], time 28 day) was 54 fL. For the same compound, the Mono ([…], time 28 day) was 1.4%, the Neu ([…], time 28 day) was 19% and the PT ([…], time 28 day) was 13 s. It also gave a Plat ([…], time 28 day) of 114.3 x10_4/uL, an RBC ([…], time 28 day) of 808.4 x10_4/ul and a Ret ([…], time 28 day) of 2.2%. The WBC ([…], time 28 day) was 119.7 x10_2/uL, the KIDNEY_L ([…], time 7 day) was 1.1 g and the KIDNEY_R ([…], time 7 day) was 1.1 g. For the same compound, the KIDNEY_TOTAL ([…], time 7 day) was 2.2 g, the KIDNEY_L ([…], time 14 day) was 1.3 g and the KIDNEY_R ([…], time 14 day) was 1.3 g. For the same compound, the KIDNEY_TOTAL ([…], time 14 day) was 2.6 g, the KIDNEY_L ([…], time 28 day) was 1.4 g and the KIDNEY_R ([…], time 28 day) was 1.3 g. The KIDNEY_TOTAL ([…], time 28 day) was 2.8 g, the LIVER ([…], time 7 day) was 12 g and the LIVER ([…], time 14 day) was 14 g. For the same compound, the LIVER ([…], time 28 day) was 15.5 g, the A/G ([…], time 7 day) was 0.8 and the ALP ([…], time 7 day) was 1920.8 IU/L. It also gave an ALT ([…], time 7 day) of 35 IU/L, an AST ([…], time 7 day) of 69 IU/L and a BUN ([…], time 7 day) of 17 mg/dL. For the same compound, the CRE ([…], time 7 day) was 0.2 mg/dL, the Ca ([…], time 7 day) was 11.3 mg/dL and the Cl ([…], time 7 day) was 105.6 meq/L. The DBIL ([…], time 7 day) was 0.02 mg/dL, the GLC ([…], time 7 day) was 179.8 mg/dL and the IP ([…], time 7 day) was 7 mg/dL. It also gave a K ([…], time 7 day) of 4.3 meq/L, an LDH ([…], time 7 day) of 63 IU/L and a Na ([…], time 7 day) of 143.8 meq/L. The PL ([…], time 7 day) was 136.2 mg/dL, the RALB ([…], time 7 day) was 2.7 g/dL and the TBIL ([…], time 7 day) was 0.05 mg/dL. The TC ([…], time 7 day) was 69.8 mg/dL, the TG ([…], time 7 day) was 101.6 mg/dL and the TP ([…], time 7 day) was 5.9 g/dL. The gamma-GTP ([…], time 7 day) was 1 IU/L, the A/G ([…], time 14 day) was 0.8 and the ALP ([…], time 14 day) was 1407.4 IU/L. It also gave an ALT ([…], time 14 day) of 40.8 IU/L, an AST ([…], time 14 day) of 66 IU/L and a BUN ([…], time 14 day) of 18 mg/dL. The CRE ([…], time 14 day) was 0.2 mg/dL, the Ca ([…], time 14 day) was 10.9 mg/dL and the Cl ([…], time 14 day) was 105 meq/L. For the same compound, the DBIL ([…], time 14 day) was 0.014 mg/dL, the GLC ([…], time 14 day) was 185.4 mg/dL and the IP ([…], time 14 day) was 7.4 mg/dL. The K ([…], time 14 day) was 4.2 meq/L, the LDH ([…], time 14 day) was 61 IU/L and the Na ([…], time 14 day) was 142.8 meq/L. It also gave a PL ([…], time 14 day) of 144.6 mg/dL, an RALB ([…], time 14 day) of 2.6 g/dL and a TBIL ([…], time 14 day) of 0.048 mg/dL. It also gave a TC ([…], time 14 day) of 76.2 mg/dL, a TG ([…], time 14 day) of 117 mg/dL and a TP ([…], time 14 day) of 6 g/dL. It also gave a gamma-GTP ([…], time 14 day) of 1 IU/L, an A/G ([…], time 28 day) of 0.7 and an ALP ([…], time 28 day) of 1095.6 IU/L. It also gave an ALT ([…], time 28 day) of 36.8 IU/L, an AST ([…], time 28 day) of 62.2 IU/L and a BUN ([…], time 28 day) of 17.2 mg/dL. It also gave a CRE ([…], time 28 day) of 0.2 mg/dL, a Ca ([…], time 28 day) of 11.1 mg/dL and a Cl ([…], time 28 day) of 105 meq/L. The DBIL ([…], time 28 day) was 0.018 mg/dL, the GLC ([…], time 28 day) was 186 mg/dL and the IP ([…], time 28 day) was 6.2 mg/dL. The K ([…], time 28 day) was 3.8 meq/L, the LDH ([…], time 28 day) was 54.2 IU/L and the Na ([…], time 28 day) was 144.4 meq/L. The PL ([…], time 28 day) was 148.6 mg/dL, the RALB ([…], time 28 day) was 2.6 g/dL and the TBIL ([…], time 28 day) was 0.06 mg/dL. The TC ([…], time 28 day) was 73.8 mg/dL, the TG ([…], time 28 day) was 157 mg/dL and the TP ([…], time 28 day) was 6.4 g/dL. The gamma-GTP ([…], time 28 day) was 1.2 IU/L.
